For the assay, the target named is Insulin-degrading enzyme (Homo sapiens) (UniProt P14735). The assay can be described thus: WT IDE enzyme activation, cell-free – biochemical, fluorescence polarization, run by assay provider, counter-screen for IDE activator project, late-stage follow-up (AID 624043). The note with it: recombinant IDE, FAbetaB cleavage.

The source made the active and inactive calls.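 The calls were made as follows: active = compounds whose EC50, the dose giving half of full IDE activation, is 100 µM or lower; inactive = EC50 above 100 µM or not measured.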

Chain of Insulin-degrading enzyme (Homo sapiens) (P14735 whole entry, looked up): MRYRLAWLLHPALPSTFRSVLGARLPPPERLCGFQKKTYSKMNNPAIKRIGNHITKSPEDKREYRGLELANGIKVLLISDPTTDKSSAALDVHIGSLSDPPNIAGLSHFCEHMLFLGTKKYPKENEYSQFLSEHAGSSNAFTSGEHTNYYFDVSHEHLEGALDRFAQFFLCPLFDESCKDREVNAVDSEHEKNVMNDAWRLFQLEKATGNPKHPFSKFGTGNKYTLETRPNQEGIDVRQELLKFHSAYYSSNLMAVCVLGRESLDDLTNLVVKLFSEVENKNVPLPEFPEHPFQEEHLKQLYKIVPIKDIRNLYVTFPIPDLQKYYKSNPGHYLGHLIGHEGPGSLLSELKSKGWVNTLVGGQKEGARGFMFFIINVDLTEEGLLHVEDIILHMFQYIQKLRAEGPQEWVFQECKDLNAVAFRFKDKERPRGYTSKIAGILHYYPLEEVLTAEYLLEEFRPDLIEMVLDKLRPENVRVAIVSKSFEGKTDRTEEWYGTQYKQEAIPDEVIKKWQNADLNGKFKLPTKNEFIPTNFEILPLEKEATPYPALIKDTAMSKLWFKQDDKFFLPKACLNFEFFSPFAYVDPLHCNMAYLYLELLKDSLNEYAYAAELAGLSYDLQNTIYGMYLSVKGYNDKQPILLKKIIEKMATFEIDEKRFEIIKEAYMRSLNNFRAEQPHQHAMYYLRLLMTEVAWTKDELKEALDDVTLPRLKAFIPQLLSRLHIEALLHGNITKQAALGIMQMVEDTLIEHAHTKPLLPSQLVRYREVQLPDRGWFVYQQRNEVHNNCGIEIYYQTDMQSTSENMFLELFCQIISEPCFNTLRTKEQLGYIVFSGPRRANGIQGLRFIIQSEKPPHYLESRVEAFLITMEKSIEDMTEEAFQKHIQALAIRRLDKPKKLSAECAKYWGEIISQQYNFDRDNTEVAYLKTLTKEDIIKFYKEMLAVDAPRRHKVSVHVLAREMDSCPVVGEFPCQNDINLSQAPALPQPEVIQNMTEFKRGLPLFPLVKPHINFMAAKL

Take `CC(C)CCn1nnnc1CN1CCN(c2ccccc2F)CC1`: the EC50 – broadly, the concentration giving half of the maximal effect – was > 15 µM (inactive). On to `CC(C)CCn1nnnc1C(C(C)C)N1CCN(c2ccccc2)CC1` (stereo not drawn), for which the EC50 is > 15 µM (inactive). Next, `CCC(c1nnnn1CCC(C)C)N1CCN(c2ccccc2)CC1` (stereo not drawn): > 15 µM (inactive).

These data come from PubChem BioAssay AID624043 (The Scripps Research Institute Molecular Screening Center, 2012).
